Assays:
granuloma / thymolysis = assay: Comparison of local effect and systemic side-effects (therapeutic index); assay type: in vivo, rat; conditions: granuloma relative potency / thymolysis relative potency
Procedure: The test compound was dissolved in acetone and aliquots of varying concentrations were injected into cotton pellets. The pellets were dried and then one pellet was implanted beneath the skin of each test rat. Six days later, the animals were sacrificed and the granulation tissue (granuloma) which formed in and around the implanted pellet was removed, dried and weighed. In addition, the thymi and adrenals were removed and weighed.
(§1) Several further studies were undertaken to determine the effects of a selected compound of the invention and prior art steroids on thymi weights in rats when the drugs were systemically administered. In each of these studies, male Sprague-Dawley rats were used. The test compounds were suspended in 0.5% CMC (carboxymethylcellulose) and injected subcutaneously once daily for three days. On the fifth day (48 hours following the last treatment), the animals were sacrificed and the thymi weights were recorded. Body weight gains were measured 24 hours after the last treatment.
The ED50 's calculated for the local cotton pellet granuloma assay and the TED40 's calculated on the basis of thymus inhibition testing as described above were used to arrive at relative potency and a therapeutic index for a representative species of the invention as compared to prior art steroids.

thymi = test system: thymi; design: species or system male Sprague-Dawley rats; conditions: rat, in vivo, sc
Procedure: as §1, with “treatment. From the test results, the TED40 's (thymolytic effective doses, that is, doses required to achieve 40% inhibition of thymi weight) and relative potencies of a representative compound of the invention and reference steroids were calculated. […] It is evident that the higher the inhibition of thymus activity at a given dose, the more toxic the compound is.” for “treatment.”

[1] = test system: granulation tissue (granuloma); assay type: in vivo, rat
Procedure: The test compound was dissolved in acetone and aliquots of varying concentrations were injected into cotton pellets. The pellets were dried and then one pellet was implanted beneath the skin of each test rat. Six days later, the animals were sacrificed and the granulation tissue (granuloma) which formed in and around the implanted pellet was removed, dried and weighed. In addition, the thymi and adrenals were removed and weighed. The ability of a compound to inhibit granuloma formation in this test is a direct indication of local anti-inflammatory activity; thus, the lower the weight of granulation tissue, the better the anti-inflammatory activity.

skin = assay: Skin weight test, 10 days of topical treatment in the rat; assay type: in vivo, Male Sprague-Dawley rats; conditions: rat, in vivo
Procedure: Male Sprague-Dawley rats, weighing about 210 g, were lightly anesthetized with ether, shaved and marked in three areas on each flank with intradermally injected blue ink. […] Treated control animals received daily topical administration of the vehicle (DMF) alone. Solvent and test compound solutions (10 μL) were applied once daily for 10 consecutive days, with […] necessary. On the eleventh day, the animals were sacrificed, their skins were removed and 16 mm diameter plugs were punched out from each area. The plugs were scraped carefully to remove subcutaneous fat and muscle, then they were blotted on filter paper and weighed. Skin atrophy is a known side effect associated with topically applied anti-inflammatory steroids.

[2] = test system: right ear of each mouse (croton oil challenge); assay: Ear edema test (croton oil, mice); assay type: in vivo; conditions: 6 h after croton oil challenge
Procedure: In treatment groups of mice, selected amounts of the test compound were dissolved in acetone containing 5% croton oil; then, 50 microliters of the solution were applied to the inner surface of the right ear of each mouse. A control group of mice was identically treated with vehicle only, i.e., 5% croton oil in acetone. Six hours after croton oil challenge, the thickness of each ear was measured.

Row | Compound | Therapeutic Index (a/b) (granuloma / thymolysis) | Thymolysis, Relative Potency at ED40 Level (b) (thymi) | local anti-inflammatory activity (inhibition of granuloma formation) ([1]; cotton pellet, 6 days) | systemic effect ([1]; rat, in vivo) | Wet skin weight, Treated, Decrease (skin) | Wet skin weight, Untreated, Decrease (skin) | inhibition of swelling ([2]; 10 μg/mL) | inhibition of swelling ([2]; 100 μg/mL)
1 | CCCCC(=O)O[C@]1(C(=O)CO)[C@@H](C)C[C@H]2[C@@H]3CCC4=CC(=O)C=C[C@]4(C)[C@@]3(F)[C@@H](O)C[C@@]21C [Betamethasone 17-valerate, reference compound] | 1.0 | 100 |  |  |  |  |  | 
2 | COC(=O)[C@@]1(OC(=O)C(Cl)Cl)[C@H](C)C[C@H]2[C@@H]3CCC4=CC(=O)C=C[C@]4(C)[C@@]3(F)[C@@H](O)C[C@@]21C [Compound I, methyl 17α-dichloroacetoxy-9α-fluoro-11β-hydroxy-16α-methylandrosta-1,4-dien-3-one-17β-carboxylate] | 7.10 | 156 | significant local anti-inflammatory activity | relatively much lower systemic effect | 11.6% | 11.2% | 37.4% | 92.1%
